According to US20230365616A1, “CHOLESTANE DERIVATIVES, PREPARATIONS CONTAINING THESE DERIVATIVES AND USE THEREOF” (UNIVERZITA PALACKEHO V OLOMOUCI, priority 2020, published 2023):

Tests used:
[1] = system: SH-SY5Y human neuroblastoma cell line (neuron-like phenotype); test: Calcein AM viability test on ATRA-differentiated neuron-like SH-SY5Y cells; format: cell-based; settings: 24 hours of treatment, mean of two independent experiments
Method: (§1) The SH-SY5Y human neuroblastoma cell line obtained purchased from ECACC (The European Collection of Authenticated Cell Cultures) was cultivated in Dulbecco's modified Eagle's Medium and Ham's F12 Nutrient Mixture (DMEM:F-12, 1:1), supplemented with 10% fetal bovine serum (FBS) and 1% penicillin and streptomycin at 37° C. in a humidified atmosphere 5% CO2, 95% air in passage limit up to ECACC+20. The assay was performed in 96-well microplate with 7000 SH-SY5Y cells per well. Next day, SH-SY5Y underwent all-trans retinoic acid (ATRA)-differentiation for 48 h (ATRA 10 μM). After 48 h, old DMEM/F12 media was removed by fresh media containing tested compounds at 0.1, 1 and 10 μM concentrations for 24 h. The tested compounds were dissolved in DMSO were added into the medium. The maximum concentration of DMSO in media was kept below 0.1% (v/v). The cell viability was measured by Calcein AM (1 mg/ml ThermoFisher) viability assay. Solution of Calcein AM in PBS (0.75 μM) was pipetted to cells and incubated for 50 minutes. After that the fluorescence was measured at 488/517 nm (excitation/emission) using microplate reader Infinite M200 (TECAN). Calcein AM assay is based on the dye-intracellular-esterase cleavage of non-fluorescent dye (Calcein AM) by living cells to fluorescent dye (Calcein), while dyeing cells that lose such ability. The values in Table 4 show % of viability, relative to control of all tested compounds. The control (medium with DMSO, <0.1% (v/v)) was postulated as 100% viability (see the first line of the table).

[2] = system: neuron-like SH-SY5Y cells; test: Glutamate-induced oxidative stress, superoxide radical formation by dihydroethidium staining; format: cell-based, human; settings: 4 hour co-treatment with 160 mM Glu, percentages of 160 mM Glu control, mean of three independent experiments
Method: Similarly as shown in previous assay, cells grew on 96 multiwell plates at density 20000 cells per well underwent differentiation and treatment procedure for glutamate model. After 4 hour co-treatment with glutamate superoxide radical's formation as marker of oxidative stress was quantified by dihydroethidium according to Kim et al. 2017, J. Med. Food, 20, 140-151 with modifications. Briefly, neuron-like SH-SYSY cells were centrifuged at 500 g for 5 minutes and 30 seconds, then media were replaced by 10 μM DHE PBS solution and kept at room temperature for 30 minutes. After 30 minutes, DHE was read at 500 nm/580 nm (excitation/emission) by Infinite M200 Pro (Tecan) microplate reader. DHE is cell permeable dye which is selective toward superoxide radical detection. Overall oxidative stress achieved by 160 mM Glu was consider as 100% so that the reduction in oxidative stress (OS reducing effect) was observed. As shown in Table 6 and FIG. 2, 160 mM Glu induced 2.6 fold increase in superoxide radical's formation.

[3] = system: human neuron-like SH-SY5Y cells; test: Neuroprotective effect on glutamate-induced oxidative damage, cell death by propidium iodide staining; format: cell-based; settings: for Neuroprotective effect (% of control): co-treatment with 160 mM Glu for 24 h, difference between 160 mM Glu and co-treatment group means; for Neuroprotective effect compared with positive controls (R-LA, DFO): 160 mM Glu, 24 h
Method: Similarly, to the previous test the assay was performed in 96-well microplates with 20000 cells per well. Day after the seeding of cells, SH-SYSY underwent all-trans retinoic acid (ATRA)-differentiation for 48 h (ATRA 10 μM). […] […] After 24 h the cell death was quantified by propidium iodide staining according to literature (Stone et al. BMC Cell Biol. 2003, 4, 1) with modifications. In general, PI staining is associated with damaged cell membrane or presence of dying cells (Stone et al. BMC Cell Biol. 2003, 4, 1). Due to the loss of adherence, damaged or death cells were stained by PI solution directly in media at 1.5 μM final concentration and incubated at room temperature for 15-25 minutes at room temperature. PI stained cells were quantified at 535/617 nm (excitation/emission) by Infinite M200 Pro (Tecan) microplate reader. Cell death generated by 160 mM Glu was consider as 100% of cell death so that reduction in cell death (neuroprotective effect) was observed.

[4] = Calcein AM viability test on ATRA-differentiated neuron-like SH-SY5Y cells; format: cell-based, human; settings: human, ATRA-differentiated neuron-like SH-SY5Y neuroblastoma cells; 1 μM, 24 hours of treatment, mean of two independent experiments; read-out: Viability (% of DMSO control)
Method: as §1

[5] = as above; format: cell-based; settings: human, ATRA-differentiated neuron-like SH-SY5Y neuroblastoma cells, 24 hours of treatment, mean of two independent experiments, read-out: Viability (% of DMSO control)

| Compound | Viability (% of DMSO control) ([1]; 0.1 μM) | Viability (% of DMSO control) ([1]; 1 μM) | Viability (% of DMSO control) ([1]; 10 μM) | Superoxide radical formation (% of 160 mM glutamate control) ([2]; 1 μM) [%] | Superoxide radical formation (% of 160 mM glutamate control) ([2]; 10 μM) [%] | Neuroprotective effect (% of control) ([3]; 1 μM) | Neuroprotective effect compared with positive controls (R-LA, DFO) ([3]; 10 μM) | Neuroprotective effect (% of control) ([3]; 10 μM) | viability at 24 h, 1 µM [4] [%] | viability at 24 h, 5 µM ([5]; 5 μM) [%] | viability at 24 h, 50 µM ([5]; 50 μM) [%] | Superoxide radical formation (% of 160 mM glutamate control) ([2]; 100 μM) [%] | Neuroprotective effect (% of control) ([3]; 100 μM) | Superoxide radical formation (% of 160 mM glutamate control) ([2]; 5 μM) [%] | Superoxide radical formation (% of 160 mM glutamate control) ([2]; 50 μM) [%] | Neuroprotective effect (% of control) ([3]; 50 μM) |
| --- | --- | --- | --- | --- | --- | --- | --- | --- | --- | --- | --- | --- | --- | --- | --- | --- |
| CC[C@@H](C)[C@H]1CC[C@H]2[C@@H]3CC(=O)[C@H]4C[C@H](O)[C@H](O)C[C@]4(C)[C@H]3CC[C@]12C [Compound 6] | 101.30 % of DMSO control | 104.80 % of DMSO control | 122.10 % of DMSO control | 85.36 | 80.19 | 15.00 % of control | double neuroprotective effect than R-LA | 33.70 % of control |  |  |  |  |  |  |  |  |
| CCC[C@@H](C)[C@H]1CC[C@H]2[C@@H]3CC(=O)[C@H]4C[C@H](O)[C@H](O)C[C@]4(C)[C@H]3CC[C@]12C [Compound 15] | 98.20 % of DMSO control | 106.40 % of DMSO control | 120.60 % of DMSO control | 98.27 | 85.61 |  | double neuroprotective effect than R-LA | 30.08 % of control |  |  |  |  |  |  |  |  |
| CCCC[C@@H](C)[C@H]1CC[C@H]2[C@@H]3CC(=O)[C@H]4C[C@H](O)[C@H](O)C[C@]4(C)[C@H]3CC[C@]12C [Compound 30] | 99.41 % of DMSO control | 102.30 % of DMSO control | 104.70 % of DMSO control | 84.54 | 81.08 |  |  | 23.17 % of control |  |  |  |  |  |  |  |  |
| CCCCC[C@@H](C)[C@H]1CC[C@H]2[C@@H]3CC(=O)[C@H]4C[C@H](O)[C@H](O)C[C@]4(C)[C@H]3CC[C@]12C [Compound 57] | 105.90 % of DMSO control | 108.90 % of DMSO control | 117.10 % of DMSO control | 93.34 | 83.99 | 15.99 % of control |  | 24.88 % of control |  |  |  |  |  |  |  |  |
| CC(C)CCC[C@@H](C)[C@H]1CC[C@H]2[C@@H]3CC(=O)[C@H]4C[C@H](O)[C@H](O)C[C@]4(C)[C@H]3CC[C@]12C [Compound 111] | 106.90 % of DMSO control | 107.80 % of DMSO control | 109.90 % of DMSO control | 89.17 | 80.21 |  |  | 26.52 % of control |  |  |  |  |  |  |  |  |
| CC(=O)N(O)CCCCCNC(=O)CCC(=O)N(O)CCCCCNC(=O)CCC(=O)N(O)CCCCCN [DFO, deferoxamine, reference compound] |  |  |  |  | 87.06 |  |  | 19.94 % of control | 106 | 106 | 110 | 92.61 | 23.55 % of control |  |  |  |
| O=C(O)CCCC[C@@H]1CCSS1 [R-LA, R-lipoic acid, reference compound] |  |  |  |  |  |  |  |  |  |  |  |  |  | 86.72 | 83.91 | 13.49 % of control |
